Data: article PMC12862769 (ACS infectious diseases, 2025)
In brackets after ≈: the same amount, converted by molar mass. Read-outs that look alike come from different tables or passages of the source. Blank lines part the entries; values can stand above or below the compound they belong to.

What was measured:
mouse gut microbiome = experiment: Mouse gut microbiome diversity in fecal pellets; type: in vivo, C57BL/6 mice
E. faecium NR-32053 = experiment: MIC assay; type: cell-based
E. faecium NR-31933 = experiment: MIC assay; type: cell-based
E. faecium NR-31914 = settings: cited from earlier work
E. faecium NR-31916 = settings: cited from earlier work
[1] = test system: E. casseliflavus ATCC 700327; experiment: MIC assay; type: cell-based
[2] = test system: Staphylococcus aureus USA300; experiment: MIC assay; type: cell-based
E. faecium NR-32094 = experiment: MIC assay; type: cell-based
E. faecium HM-970 = experiment: MIC assay; type: cell-based
E. faecium NR-31909 [3] = experiment: E. faecium septicemic peritonitis mouse model; type: in vivo, BALB/c mice
E. faecium HM-965 = experiment: MIC assay; type: cell-based
E. faecium HM-952 = experiment: MIC assay; type: cell-based
[4] = test system: Bacillus subtilis ATCC11774; experiment: MIC assay; type: cell-based
E. faecalis HM-201 = experiment: MIC assay; type: cell-based
E. durans ATCC 11576 = experiment: MIC assay; type: cell-based
E. faecium HM-968 = settings: cited from earlier work
E. faecium NR-31954 = experiment: MIC assay; type: cell-based
[5] = test system: all tested Enterococcus strains; experiment: MIC assay, all tested Enterococcus strains; type: cell-based
E. faecium ATCC 700221 = experiment: MIC assay; type: cell-based
E. faecium NR-31909 [6] = experiment: MIC assay; type: cell-based
E. faecalis HM-334 = settings: cited from earlier work
[7] = test system: Staphylococcus epidermidis NRS101; experiment: MIC assay; type: cell-based
E. faecalis NR-31971 = settings: cited from earlier work
E. faecalis HM-335 = settings: cited from earlier work
E. faecium NR-31937 = experiment: MIC assay; type: cell-based
E. raffinosus ATCC 49464 = experiment: MIC assay; type: cell-based
E. gallinarum ATCC 49373 = experiment: MIC assay; type: cell-based
E. faecium NR-31912 = experiment: MIC assay; type: cell-based
[8] = test system: Listeria Monocytogenes ATCC 19111; experiment: MIC assay; type: cell-based
E. faecium NR-31909 [9] = experiment: Multi-step resistance selection assay; type: cell-based; settings: starting passage 13
[10] = test system: E. faecalis and E. faecium strains; experiment: MIC assay, panel of 25 E. faecalis and E. faecium strains; type: cell-based
E. faecium NR-28978 = settings: cited from earlier work
E. faecium NR-32052 = settings: cited from earlier work
E. faecalis NR-31970 = experiment: MIC assay; type: cell-based
E. avium ATCC 14025 = experiment: MIC assay; type: cell-based
E. faecium NR-31903 = settings: cited from earlier work
E. faecium NR-32065 = settings: cited from earlier work
[11] = test system: E. saccharolyticus ATCC 43076; experiment: MIC assay; type: cell-based
E. faecalis NR-31972 = settings: cited from earlier work
E. hirae ATCC 10541 = experiment: MIC assay; type: cell-based
E. faecalis HM-934 = experiment: MIC assay; type: cell-based
[12] = 5% CO2 atmosphere at 37° C, no CAs, expresses MpsAB homologs

change in beta diversity (Bray-Curtis dissimilarity), pre- vs post-treatment (mouse gut microbiome; same regimens, day −1 vs day 7 (and 14)): significant change
SMILES: CCC[C@@H]1C[C@@H](C(=O)N[C@@H]([C@H]2O[C@H](SC)[C@H](O)[C@@H](O)[C@H]2O)[C@H](C)Cl)N(C)C1 [clindamycin]

SMILES: CC(=O)NC[C@H]1CN(c2ccc(N3CCOCC3)c(F)c2)C(=O)O1 [LNZ, linezolid]
MIC (E. faecium NR-32053; 5% CO2 atmosphere at 37° C): 2.96 µM (≈ 0.999 µg/mL)
MIC (E. faecium NR-32053; Enterococcus faecium, NR32053): 2.96 µM (≈ 0.999 µg/mL)
MIC (E. faecium NR-31933; 5% CO2 atmosphere at 37° C): 2.96 µM (≈ 0.999 µg/mL)
MIC (E. faecium NR-31933; Enterococcus faecium, NR31933): 2.96 µM (≈ 0.999 µg/mL)
MIC (E. faecium NR-31914; 5% CO2 atmosphere at 37° C): 2.96 µM (≈ 0.999 µg/mL)
MIC (E. faecium NR-31914; ambient air at 37° C): 2.96 µM (≈ 0.999 µg/mL)
MIC (E. faecium NR-31916; 5% CO2 atmosphere at 37° C): 2.96 µM (≈ 0.999 µg/mL)
MIC (E. faecium NR-31916; ambient air at 37° C): 2.96 µM (≈ 0.999 µg/mL)
MIC ([1]; 5% CO2 atmosphere at 37° C): 2.96 µM (≈ 0.999 µg/mL)
MIC ([1]; Enterococcus casseliflavus, ATCC700327): 2.96 µM (≈ 0.999 µg/mL)
MIC [2, 12]: 1.48 µM (≈ 0.499 µg/mL)
MIC ([2]; Staphylococcus aureus, USA300): 1.48 µM (≈ 0.499 µg/mL)
MIC (E. faecium NR-32094; 5% CO2 atmosphere at 37° C): 1.48 µM (≈ 0.499 µg/mL)
MIC (E. faecium NR-32094; Enterococcus faecium, NR32094): 1.48 µM (≈ 0.499 µg/mL)
MIC (E. faecium HM-970; 5% CO2 atmosphere at 37° C): 2.96 µM (≈ 0.999 µg/mL)
MIC (E. faecium HM-970; Enterococcus faecium, HM970): 2.96 µM (≈ 0.999 µg/mL)
change in microbiome diversity in fecal samples (mouse gut microbiome; 20 mg/kg PO QD, CAI0019 days 7 or 14, linezolid day 7, vs pre-treatment): no significant change
survival (mice rescued) (E. faecium NR-31909 [3]; 20 mg/kg PO once-daily for three days, n = 6/group): 83%
reduction of VRE bioburden compared to vehicle (E. faecium NR-31909 [3]; kidney, liver and spleen, each tissue, 20 mg/kg PO QD three days): at least 2 Log10 CFU/mL
reduction of VRE bioburden (E. faecium NR-31909 [3]; kidney, liver and spleen, three-day treatment): > 99%
MIC (E. faecium HM-965; 5% CO2 atmosphere at 37° C): 2.96 µM (≈ 0.999 µg/mL)
MIC (E. faecium HM-965; Enterococcus faecium, HM965): 2.96 µM (≈ 0.999 µg/mL)
MIC (E. faecium HM-952; 5% CO2 atmosphere at 37° C): 2.96 µM (≈ 0.999 µg/mL)
MIC (E. faecium HM-952; Enterococcus faecium, HM952): 2.96 µM (≈ 0.999 µg/mL)
MIC ([4]; 5% CO2 atmosphere at 37° C, encodes both MpsAB and CAs): 1.48 µM (≈ 0.499 µg/mL)
MIC ([4]; Bacillus subtilis, ATCC11774): 1.48 µM (≈ 0.499 µg/mL)
MIC (E. faecalis HM-201; 5% CO2 atmosphere at 37° C): 2.96 µM (≈ 0.999 µg/mL)
MIC (E. faecalis HM-201; Enterococcus faecalis, HM201): 2.96 µM (≈ 0.999 µg/mL)
MIC (E. durans ATCC 11576; 5% CO2 atmosphere at 37° C): 2.96 µM (≈ 0.999 µg/mL)
MIC (E. durans ATCC 11576; Enterococcus durans, ATCC11576): 2.96 µM (≈ 0.999 µg/mL)
MIC (E. faecium HM-968; 5% CO2 atmosphere at 37° C): 2.96 µM (≈ 0.999 µg/mL)
MIC (E. faecium HM-968; ambient air at 37° C): 1.48 µM (≈ 0.499 µg/mL)
MIC (E. faecium NR-31954; 5% CO2 atmosphere at 37° C): 2.96 µM (≈ 0.999 µg/mL)
MIC (E. faecium NR-31954; Enterococcus faecium, NR31954): 2.96 µM (≈ 0.999 µg/mL)
MIC shift in the presence of CO2 ([5]; 5% CO2 versus ambient air): no MIC shift
MIC50 ([5]; Enterococcus, read-out: All Enterococci spp. MIC50): 2.96 µM (≈ 0.999 µg/mL)
MIC90 ([5]; Enterococcus, read-out: All Enterococci spp. MIC90): 2.96 µM (≈ 0.999 µg/mL)
MIC (E. faecium ATCC 700221; 5% CO2 atmosphere at 37° C): 2.96 µM (≈ 0.999 µg/mL)
MIC (E. faecium ATCC 700221; Enterococcus faecium, ATCC700221): 2.96 µM (≈ 0.999 µg/mL)
MIC (E. faecium NR-31909 [6]; 5% CO2 atmosphere at 37° C): 2.96 µM (≈ 0.999 µg/mL)
MIC (E. faecium NR-31909 [6]; Enterococcus faecium, NR31909): 2.96 µM (≈ 0.999 µg/mL)
MIC (E. faecalis HM-334; 5% CO2 atmosphere at 37° C): 2.96 µM (≈ 0.999 µg/mL)
MIC (E. faecalis HM-334; ambient air at 37° C): 2.96 µM (≈ 0.999 µg/mL)
MIC [7, 12]: 2.96 µM (≈ 0.999 µg/mL)
MIC ([7]; Staphylococcus epidermidis, NRS101): 2.96 µM (≈ 0.999 µg/mL)
MIC (E. faecalis NR-31971; 5% CO2 atmosphere at 37° C): 2.96 µM (≈ 0.999 µg/mL)
MIC (E. faecalis NR-31971; ambient air at 37° C): 2.96 µM (≈ 0.999 µg/mL)
MIC (E. faecalis HM-335; 5% CO2 atmosphere at 37° C): 2.96 µM (≈ 0.999 µg/mL)
MIC (E. faecalis HM-335; ambient air at 37° C): 1.48 µM (≈ 0.499 µg/mL)
MIC (E. faecium NR-31937; 5% CO2 atmosphere at 37° C): 2.96 µM (≈ 0.999 µg/mL)
MIC (E. faecium NR-31937; Enterococcus faecium, NR31937): 2.96 µM (≈ 0.999 µg/mL)
MIC (E. raffinosus ATCC 49464; 5% CO2 atmosphere at 37° C): 2.96 µM (≈ 0.999 µg/mL)
MIC (E. raffinosus ATCC 49464; Enterococcus raffinosus, ATCC49464): 2.96 µM (≈ 0.999 µg/mL)
MIC (E. gallinarum ATCC 49373; 5% CO2 atmosphere at 37° C): 2.96 µM (≈ 0.999 µg/mL)
MIC (E. gallinarum ATCC 49373; Enterococcus gallinarum, ATCC49373|GALLINARUM): 2.96 µM (≈ 0.999 µg/mL)
MIC (E. faecium NR-31912; 5% CO2 atmosphere at 37° C): 2.96 µM (≈ 0.999 µg/mL)
MIC (E. faecium NR-31912; Enterococcus faecium, NR31912): 2.96 µM (≈ 0.999 µg/mL)
MIC ([8]; 5% CO2 atmosphere at 37° C, encodes only α-CA, no MpsAB homologs): 2.96 µM (≈ 0.999 µg/mL)
MIC ([8]; Listeria monocytogenes, ATCC19111): 2.96 µM (≈ 0.999 µg/mL)
MIC increase (E. faecium NR-31909 [9]): 2 fold MIC
MIC50 ([10]; read-out: Ef MIC50): 2.96 µM (≈ 0.999 µg/mL)
MIC90 ([10]; read-out: Ef MIC90): 2.96 µM (≈ 0.999 µg/mL)
MIC (E. faecium NR-28978; 5% CO2 atmosphere at 37° C): 2.96 µM (≈ 0.999 µg/mL)
MIC (E. faecium NR-28978; ambient air at 37° C): 2.96 µM (≈ 0.999 µg/mL)
MIC (E. faecium NR-32052; 5% CO2 atmosphere at 37° C): 1.48 µM (≈ 0.499 µg/mL)
MIC (E. faecium NR-32052; ambient air at 37° C): 1.48 µM (≈ 0.499 µg/mL)
MIC (E. faecalis NR-31970; 5% CO2 atmosphere at 37° C): 2.96 µM (≈ 0.999 µg/mL)
MIC (E. faecalis NR-31970; Enterococcus faecalis, NR31970): 2.96 µM (≈ 0.999 µg/mL)
MIC (E. avium ATCC 14025; 5% CO2 atmosphere at 37° C): 2.96 µM (≈ 0.999 µg/mL)
MIC (E. avium ATCC 14025; Enterococcus avium, ATCC14025): 2.96 µM (≈ 0.999 µg/mL)
MIC (E. faecium NR-31903; 5% CO2 atmosphere at 37° C): 47.4 µM (≈ 16 µg/mL)
MIC (E. faecium NR-31903; ambient air at 37° C): 47.4 µM (≈ 16 µg/mL)
MIC (E. faecium NR-32065; 5% CO2 atmosphere at 37° C): 1.48 µM (≈ 0.499 µg/mL)
MIC (E. faecium NR-32065; ambient air at 37° C): 0.74 µM (≈ 0.25 µg/mL)
MIC [11]: 2.96 µM (≈ 0.999 µg/mL)
MIC ([11]; 5% CO2 atmosphere at 37° C): 2.96 µM (≈ 0.999 µg/mL)
MIC (E. faecalis NR-31972; 5% CO2 atmosphere at 37° C): 2.96 µM (≈ 0.999 µg/mL)
MIC (E. faecalis NR-31972; ambient air at 37° C): 1.48 µM (≈ 0.499 µg/mL)
MIC (E. hirae ATCC 10541; 5% CO2 atmosphere at 37° C): 2.96 µM (≈ 0.999 µg/mL)
MIC (E. hirae ATCC 10541; Enterococcus hirae, ATCC10541): 2.96 µM (≈ 0.999 µg/mL)
MIC (E. faecalis HM-934; 5% CO2 atmosphere at 37° C): 2.96 µM (≈ 0.999 µg/mL)
MIC (E. faecalis HM-934; Enterococcus faecalis, HM934): 2.96 µM (≈ 0.999 µg/mL)
